Assay results from US9796711B2, “Substituted pyrazolo[3,4-b]pyridin-6-carboxylic acids and method of use” (AbbVie S.àr.l., priority 2015, dated 2017).

What was measured:
ΔF508-CFTR [1] = target: T1, ΔF508-CFTR (Homo sapiens, UniProt P13569, DEL508-508); assay: CFTR cell surface levels using HRP-tagged ΔF508-CFTR expressing CFBE cells, intrinsic corrector capacity; type: cell-based; conditions: HRP-tagged ΔF508-CFTR expressing CFBE cells, intrinsic corrector capacity (no co-corrector), 33° C., 20 hours; for EC50: read-out: EC50
T1 construct: host or cells: CFBE41o-, doxycycline-inducible
How it was run: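 Here the cells express ΔF508-CFTR with horseradish peroxidase inserted in extracellular loop 4, so only rescued channel at the surface gives luminescent signal. Compounds act on their own, 20 h at the reduced temperature of 33 °C; values are percent activity relative to DMSO and a 3 μM corrector.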

ΔF508-CFTR [2] = target: T1, ΔF508-CFTR; assay: CFTR cell surface levels using HRP-tagged ΔF508-CFTR expressing CFBE cells, in the presence of a co-corrector; type: cell-based; conditions: HRP-tagged ΔF508-CFTR expressing CFBE cells, in the presence of 3 μM co-corrector; for EC50: read-out: EC50
How it was run: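 Cells were seeded with 0.5 μg/mL doxycycline and held 68 h at 37 °C. Test compounds plus 3 μM co-corrector (final 0.1% DMSO) were then added for 20 h at 33 °C. Washed cells received HRP substrate, and luminescence was normalized between DMSO and 3 μM co-corrector controls.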

T1 sequence (P13569 with tags, fused parts or gaps DEL508-508): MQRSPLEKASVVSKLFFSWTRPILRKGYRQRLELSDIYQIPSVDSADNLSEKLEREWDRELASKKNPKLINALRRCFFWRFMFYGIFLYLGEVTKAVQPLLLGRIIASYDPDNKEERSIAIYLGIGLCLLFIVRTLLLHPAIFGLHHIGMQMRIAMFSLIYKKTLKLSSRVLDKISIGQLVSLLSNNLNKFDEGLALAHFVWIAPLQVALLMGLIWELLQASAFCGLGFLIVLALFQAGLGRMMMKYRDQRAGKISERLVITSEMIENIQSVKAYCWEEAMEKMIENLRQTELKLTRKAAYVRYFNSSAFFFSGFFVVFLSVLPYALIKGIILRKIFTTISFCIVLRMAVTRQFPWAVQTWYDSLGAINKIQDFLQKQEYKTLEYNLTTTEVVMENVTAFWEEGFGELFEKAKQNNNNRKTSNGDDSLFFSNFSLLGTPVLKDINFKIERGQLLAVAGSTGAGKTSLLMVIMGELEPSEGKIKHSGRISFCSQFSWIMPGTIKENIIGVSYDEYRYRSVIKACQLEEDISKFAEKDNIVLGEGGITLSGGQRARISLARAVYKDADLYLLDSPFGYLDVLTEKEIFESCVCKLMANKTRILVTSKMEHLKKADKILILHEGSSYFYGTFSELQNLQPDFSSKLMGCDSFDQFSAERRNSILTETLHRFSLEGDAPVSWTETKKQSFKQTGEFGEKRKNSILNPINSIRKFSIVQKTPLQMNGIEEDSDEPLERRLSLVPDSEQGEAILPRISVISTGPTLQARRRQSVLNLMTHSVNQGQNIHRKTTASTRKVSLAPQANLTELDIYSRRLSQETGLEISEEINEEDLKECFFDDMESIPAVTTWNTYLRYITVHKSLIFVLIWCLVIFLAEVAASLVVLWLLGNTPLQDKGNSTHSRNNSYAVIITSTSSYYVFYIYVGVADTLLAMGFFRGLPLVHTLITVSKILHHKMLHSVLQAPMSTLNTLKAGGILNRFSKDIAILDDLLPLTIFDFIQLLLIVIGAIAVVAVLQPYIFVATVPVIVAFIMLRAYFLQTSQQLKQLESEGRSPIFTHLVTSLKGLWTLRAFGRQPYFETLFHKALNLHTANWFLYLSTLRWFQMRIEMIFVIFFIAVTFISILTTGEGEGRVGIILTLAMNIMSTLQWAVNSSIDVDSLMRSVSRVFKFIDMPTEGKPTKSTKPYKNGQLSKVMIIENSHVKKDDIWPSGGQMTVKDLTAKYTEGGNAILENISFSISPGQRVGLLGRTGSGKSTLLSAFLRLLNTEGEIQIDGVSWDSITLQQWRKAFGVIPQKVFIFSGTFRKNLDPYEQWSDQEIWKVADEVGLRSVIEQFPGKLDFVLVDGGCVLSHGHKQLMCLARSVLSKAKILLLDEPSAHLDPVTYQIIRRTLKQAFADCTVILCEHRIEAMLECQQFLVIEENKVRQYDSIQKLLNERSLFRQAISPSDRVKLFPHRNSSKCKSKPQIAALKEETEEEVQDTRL

| Structure (SMILES) | % Activation (ΔF508-CFTR [1]) [%] | EC50 (ΔF508-CFTR [1]) [µM] | % Activation (ΔF508-CFTR [2]) [%] | EC50 (ΔF508-CFTR [2]) [µM] |
| --- | --- | --- | --- | --- |
| O=C(O)c1cc(OCCN(C2CCCCC2)C2COC2)c2c(C3CCC3)nn(-c3ccccc3)c2n1 [compound 625, 3-cyclobutyl-4-{2-[cyclohexyl(oxetan-3-yl)amino]ethoxy}-1-phenyl-1H-pyrazolo[3,4-b]pyridine-6-carboxylic acid] | 135.2 | 0.3 | 326.75 | 0.126 |
| CS(=O)(=O)N1CCC(F)(COc2cc(C(=O)O)nc3c2c(C2CCC2)nn3-c2ccccc2)CC1 [compound 626, 3-cyclobutyl-4-{[4-fluoro-1-(methanesulfonyl)piperidin-4-yl]methoxy}-1-phenyl-1H-pyrazolo[3,4-b]pyridine-6-carboxylic acid] | 223.1 | 2.71 | 398.15 | 1.01 |
| CS(=O)(=O)C1(COc2cc(C(=O)O)nc3c2c(C2CCC2)nn3-c2ccccc2)CCOCC1 [compound 627, 3-cyclobutyl-4-{[4-(methanesulfonyl)oxan-4-yl]methoxy}-1-phenyl-1H-pyrazolo[3,4-b]pyridine-6-carboxylic acid] | 9.221 | > 10 | 126.25 | > 10 |
| O=C(O)c1cc(OCCN2CCCC2)c2c(C3CCC3)nn(-c3ccccc3)c2n1 [compound 628, 3-cyclobutyl-1-phenyl-4-[2-(pyrrolidin-1-yl)ethoxy]-1H-pyrazolo[3,4-b]pyridine-6-carboxylic acid] | 67.69 | 3.18 | 217.7 | 3.33 |
| CC(C)(COc1cc(C(=O)O)nc2c1c(C1CCC1)nn2-c1ccccc1)S(C)(=O)=O [compound 629, 3-cyclobutyl-4-[2-(methanesulfonyl)-2-methylpropoxy]-1-phenyl-1H-pyrazolo[3,4-b]pyridine-6-carboxylic acid] | 94.42 | 3.33 | 252.2 | 2.16 |
| CC1(COc2cc(C(=O)O)nc3c2c(C2CCC2)nn3-c2ccccc2)CC1 [compound 630, 3-cyclobutyl-4-[(1-methylcyclopropyl)methoxy]-1-phenyl-1H-pyrazolo[3,4-b]pyridine-6-carboxylic acid] | 136.15 | 0.308 | 323.7 | 0.254 |
| CC1(CCOc2cc(C(=O)O)nc3c2c(C2CCC2)nn3-c2ccccc2)CC1 [compound 631, 3-cyclobutyl-4-[2-(1-methylcyclopropyl)ethoxy]-1-phenyl-1H-pyrazolo[3,4-b]pyridine-6-carboxylic acid] | 99.143 | 0.346 | 283 | 0.177 |
| CS(=O)(=O)C1(COc2cc(C(=O)O)nc3c2c(C2CCC2)nn3-c2ccccc2)CCC1 [compound 632, 3-cyclobutyl-4-{[1-(methanesulfonyl)cyclobutyl]methoxy}-1-phenyl-1H-pyrazolo[3,4-b]pyridine-6-carboxylic acid] | 18.94 | > 10 | 129.55 | > 10 |
| O=C(O)c1cc(OCCC2CCCCC2)c2c(C3CCC3)nn(-c3ccccc3)c2n1 [compound 633, 3-cyclobutyl-4-(2-cyclohexylethoxy)-1-phenyl-1H-pyrazolo[3,4-b]pyridine-6-carboxylic acid] | 66.87 | 0.665 | 279.27 | 0.714 |
| CN1CCN(CCCOc2cc(C(=O)O)nc3c2c(C2CCC2)nn3-c2ccccc2)CC1 [compound 634, 3-cyclobutyl-4-[3-(4-methylpiperazin-1-yl)propoxy]-1-phenyl-1H-pyrazolo[3,4-b]pyridine-6-carboxylic acid] | 122.2 | 3.33 | 294.7 | 2.57 |
| CN(C)CCCOc1cc(C(=O)O)nc2c1c(C1CCC1)nn2-c1ccccc1 [compound 635, 3-cyclobutyl-4-[3-(dimethylamino)propoxy]-1-phenyl-1H-pyrazolo[3,4-b]pyridine-6-carboxylic acid] | 86.1 | 3.33 | 233.85 | 2.11 |
| CN(C)CC(C)(C)COc1cc(C(=O)O)nc2c1c(C1CCC1)nn2-c1ccccc1 [compound 636, 3-cyclobutyl-4-[3-(dimethylamino)-2,2-dimethylpropoxy]-1-phenyl-1H-pyrazolo[3,4-b]pyridine-6-carboxylic acid] | 184.1 | 0.617 | 391.3 | 0.79 |
| CN(C)CCOc1cc(C(=O)O)nc2c1c(C1CCC1)nn2-c1ccccc1 [compound 637, 3-cyclobutyl-4-[2-(dimethylamino)ethoxy]-1-phenyl-1H-pyrazolo[3,4-b]pyridine-6-carboxylic acid] | 49.14 | 3.33 | 174.45 | 3.01 |
| CN(C)CC(CN(C)C)Oc1cc(C(=O)O)nc2c1c(C1CCC1)nn2-c1ccccc1 [compound 638, 4-{[1,3-bis(dimethylamino)propan-2-yl]oxy}-3-cyclobutyl-1-phenyl-1H-pyrazolo[3,4-b]pyridine-6-carboxylic acid] | 24.93 | > 10 | 175.15 | 6.67 |
| O=C(O)c1cc(OCCN2CCCCC2)c2c(C3CCC3)nn(-c3ccccc3)c2n1 [compound 639, 3-cyclobutyl-1-phenyl-4-[2-(piperidin-1-yl)ethoxy]-1H-pyrazolo[3,4-b]pyridine-6-carboxylic acid] | 96.54 | 2.21 | 261.7 | 1.67 |
| O=C(O)c1cc(OCCN2CCNC2=O)c2c(C3CCC3)nn(-c3ccccc3)c2n1 [compound 640, 3-cyclobutyl-4-[2-(2-oxoimidazolidin-1-yl)ethoxy]-1-phenyl-1H-pyrazolo[3,4-b]pyridine-6-carboxylic acid] | 13.97 | > 10 | 137.45 | > 10 |
| O=C(O)c1cc(OC(CN2CCOCC2)CN2CCOCC2)c2c(C3CCC3)nn(-c3ccccc3)c2n1 [compound 641, 4-{[1,3-bis(morpholin-4-yl)propan-2-yl]oxy}-3-cyclobutyl-1-phenyl-1H-pyrazolo[3,4-b]pyridine-6-carboxylic acid] | 65.07 | 3.33 | 239.75 | 2.27 |
| O=C(O)c1cc(OCCCN2CCCCC2)c2c(C3CCC3)nn(-c3ccccc3)c2n1 [compound 642, 3-cyclobutyl-1-phenyl-4-[3-(piperidin-1-yl)propoxy]-1H-pyrazolo[3,4-b]pyridine-6-carboxylic acid] | 125.9 | 3.33 | 281.95 | 2.4 |
| O=C(O)c1cc(OCCN2CCCCCC2)c2c(C3CCC3)nn(-c3ccccc3)c2n1 [compound 643, 4-[2-(azepan-1-yl)ethoxy]-3-cyclobutyl-1-phenyl-1H-pyrazolo[3,4-b]pyridine-6-carboxylic acid] | 95.84 | 2.9 | 271.8 | 1.26 |
| CN1CCCN(CCOc2cc(C(=O)O)nc3c2c(C2CCC2)nn3-c2ccccc2)CC1 [compound 644, 3-cyclobutyl-4-[2-(4-methyl-1,4-diazepan-1-yl)ethoxy]-1-phenyl-1H-pyrazolo[3,4-b]pyridine-6-carboxylic acid] | 42.75 | 3.33 | 196.3 | 3.33 |
| CN1CCC[C@]12C[C@@H](Oc1cc(C(=O)O)nc3c1c(C1CCC1)nn3-c1ccccc1)C2 [compound 645, 3-cyclobutyl-4-{[(2s,4r)-5-methyl-5-azaspiro[3.4]octan-2-yl]oxy}-1-phenyl-1H-pyrazolo[3,4-b]pyridine-6-carboxylic acid] | 111.55 | 1.07 | 270.05 | 0.409 |
| CCN(CC)CC1(N2CC(Oc3cc(C(=O)O)nc4c3c(C3CCC3)nn4-c3ccccc3)C2)COC1 [compound 646, 3-cyclobutyl-4-[(1-{3-[(diethylamino)methyl]oxetan-3-yl}azetidin-3-yl)oxy]-1-phenyl-1H-pyrazolo[3,4-b]pyridine-6-carboxylic acid] | 45.39 | 3.33 | 198 | 3.33 |
| CC(C)N1CCC(Oc2cc(C(=O)O)nc3c2c(C2CCC2)nn3-c2ccccc2)CC1 [compound 647, 3-cyclobutyl-1-phenyl-4-{[1-(propan-2-yl)piperidin-4-yl]oxy}-1H-pyrazolo[3,4-b]pyridine-6-carboxylic acid] | 119.9 | 2.18 | 301.3 | 2.01 |
| O=C(O)c1cc(OC2CCCCCC2)c2c(C3CCC3)nn(-c3ccccc3)c2n1 [compound 648, 3-cyclobutyl-4-(cycloheptyloxy)-1-phenyl-1H-pyrazolo[3,4-b]pyridine-6-carboxylic acid] | 90.745 | 0.263 | 296.1 | 0.203 |
